From US6469052B2, “Compounds for the photodecontamination of pathogens in blood” (Cerus Corporation, priority 1993, dated 2002)
Like-named read-outs stand apart in the source and are kept apart here.

Assays:
mouse reticulocytes = details: increased dose levels, male Balb/c mice, tail vein
Experimental: Male Balb/c mice were then injected with 0.1 ml of a compound solution via the tail vein. At least 3 mice were injected per dose level. Saline only was used as a negative control. For a positive control, cyclophosphamide (cycloPP) was administered at a dose of 30 mg/kg. In the experimental group, the injections were repeated once per day for four days. In the positive control group, the sample was administered only once, on day three. On day 5, several microliters of blood were withdrawn from each subject and smeared on a glass slide. Cells were fixed in absolute methanol and stored in a slide rack.
For analysis, cells were stained with acridine orange and visualized under a fluorescence microscope by counting: (i) the number of reticulocytes per 5000 erythrocytes; and (ii) the number of micronucleated reticulocytes per 1000 reticulocytes. Reticulocytes were distinguished by their red fluorescence due to the presence of RNA. Micronuclei were distinguished by their green fluorescence due to the presence of DNA. The percentage of reticulocytes (%PCE) was then calculated. A decrease in the frequency of […] in the percentage of reticulocytes, is an indication of bone marrow toxicity. The percentage of reticulocytes with micronuclei (%PCE with MN) was also calculated. An increase in %PCE with MN is a measure of clastogenicity.
After initial results were determined, the experiment was repeated using increased dose levels, until: (i) Micronucleus formation was seen; or (ii) Bone marrow toxicity was observed; or (ii) The lethal dose was reached; or (iv) A dose of 5 g/kg was administered.

human platelets = details: 100 μM compound, 5 Joules/cm^2, 5 days storage
Experimental: (§1) To measure the effects of the present compounds and methods of decontamination on platelet function using these four indicators, four samples were prepared for each compound tested, two control samples and two containing compound. Three units of human platelets were obtained from the Sacramento Blood Center, Sacramento, Calif. These were each transferred under sterile conditions to 50 ml centrifuge tubes, then aliquots of each unit were transferred into a second set of 50 ml sterile centrifuge tubes. To each centrifuge tube containing platelet concentrate (PC), an aliquot of compound stock was added to reach a final concentration of 100 μM of compound. […] The samples were pipetted gently up and down to mix. Then aliquots (either 3 ml or 8 ml) of each sample was transferred to two sterile Teflon™ Medi-bags™ (American Fluoroseal Co., Silver Springs, Md.) (presently owned by The West Company, Lionville, Pa.). Samples were treated in one of two different sized bags, having either 3 ml or 8 ml capacity. […] For each compound tested, two control samples without compound were prepared by again removing aliquots of platelet concentrate (17 ml if using an 8 ml bag, […] if using a 3 ml bag) from the same one of the first set of 50 ml centrifuge tubes from which the compound sample was drawn, and dividing into Medibags, as before. One of each pair of Medibags containing a compound, and one of each pair of control Medibags, were illuminated for 5 Joules/cm^2 on the device described in Example 1, above. Then all experimental and control Medibags were placed on a platelet shaker for storage for 5 days. The same experiments were repeated several times to obtain more statistically meaningful data, as represented by “n”, the number of data points represented, in the graphs of FIGS. 21-24, discussed below.
A Sysmex cell counter was used to measure platelet count in the platelet samples. Samples were diluted 1:3 in blood bank saline.

[1] = test system: GMP-140 (p-selectin) on platelets; experiment: Platelet function: GMP-140 expression (flow cytometry, CD62); type: cell-based, human; details: 100 μM compound, 5 Joules/cm^2, 5 days storage
Experimental: as §1

[2] = test system: Duck Hepatitis B Virus (DHBV); experiment: Inactivation of DHBV in platelet concentrate, PCR amplification readout; details: 5J/CM^2 UVA
Experimental: This example describes the protocol for inactivation of Duck Hepatitis B Virus (DHBV), a model for Hepatitis B Virus, using compounds of the present invention. DHBV in duck yolk was added to platelet concentrate (PC) to a final concentration of 2×10^7 particles per mL and mixed by gentle rocking for ≧15 min. […] Samples, including controls without added psoralen, were irradiated with 5J/CM^2 UVA, with mixing at 1 J/cm^2 increments. After irradiation, leukocytes and platelets were separated from virus by centrifugation. […] Samples were extracted with phenol-chloroform and chloroform, followed by ethanol precipitation. […] PCR amplicons were generated using primers pairs DCD03/DCD05 (127 bp), DCD03/DCD06 (327 bp) and DCD03/DCD07 (1072 bp). PCR was performed in a standard PCR buffer containing 0.2 mM each deoxyribonucleoside 5′-triphosphates (dATP, dGTP, dCTP, and dTTP), […], and 0.5 units Taq polymerase per […]. 30 cycles of amplification were performed with the following thermal profile: 95° C. 30 sec, 60° C. 30 sec, 72° C. 1 min. The amplification was followed by a 7 min incubation at 72° C. to yield full length products. […] was added at an amount of […] in order to detect and quantify the resulting products. Products were separated by electrophoresis on denaturing polyacrylamide slab gels and counted. The absence of signal in a given reaction was taken to indicate effective inactivation of DHBV.

[3] = test system: Salmonella typhimurium TA97a
Source text: (§2) The second property that is important in testing a compound for use in methods of the present invention is mutagenicity. The most widely used mutagen/carcinogen screening assay is the Ames test. This assay is described by D. M. Maron and B. N. Ames in Mutation Research 113: 173 ( 1983) and a specific screen is described in detail in Example 17, below. The Ames test utilizes several unique strains of Salmonella typhimurium that are histidine- dependent for growth and that lack the usual DNA repair enzymes. The frequency of normal mutations that render the bacteria independent of histidine (i.e., the frequency of spontaneous revertants) is low. The test allows one to evaluate the impact of a compound on this revertant frequency.
(§3) In this example the compounds of the present invention are tested for their dark mutagenicity using an Ames assay. The procedures used for the Salmonella mutagenicity test as described in detail by Maron and Ames were followed exactly. Maron, D. M. and B. N. Ames, Mutation Research 113: 173 ( 1983). A brief description for each procedure is given here. The tester strains TA97a, TA98, TA100, TA102, TA1537 and TA1538 were obtained from Dr. Ames. TA97a, TA98, TA1537 and TA1538 are frameshift tester strains. TA100 and TA102 are base-substitution tester strains. Upon receipt each strain was cultured under a variety of conditions to confirm the genotypes specific to the strains.
(§4) The first tests done with the strains were to determine the range of spontaneous reversion for each of the strains. With each mutagenicity experiment the spontaneous reversion of the tester strains to histidine independence was measured and expressed as the number of spontaneous revertants per plate. This served as the background controls.
(§5) For all experiments, the pre-incubation procedure was used. In this procedure one vial of each tester strain was thawed and 20 μL of this culture was added to 6 mL of Oxoid Nutrient Broth #2. This solution was allowed to shake for 10 hours at 37° C. In the pre-incubation procedure, 0.1 mL of this overnight culture was added to each of the required number of sterile test tubes. To half of the tubes 0.5 mL of a 10% S-9 solution containing Aroclor 1254 induced rat liver extract (Molecular Toxicology Inc., Annapolis, Md.), and MgCl2, KCl, glucose-6-phosphate, NADP, and sodium phosphate buffer (Sigma, St. Louis, Mo.) were added. To the other half of the tubes 0.5 mL of 0.2M sodium phospate buffer, pH 7.4, was used in place of the S-9 mixture (the -S9 samples). Finally 0.1 mL of the test solution containing either 0, 0.1, 0.5, 1, 5, 10, 50, 100, 250, or 500 μg/mL of the test compound was added. The 0.7 mL mixture was vortexed and then pre-incubated while shaking for 20 minutes at 37° C. After shaking, 2 mL of molten top agar supplemented with histidine and biotin were added to the 0.7 mL mixture and immediately poured onto a minimal glucose agar plate (volume of base agar was 20 mL). The top agar was allowed 30 minutes to solidify and then the plates were inverted and incubated for 44 hours at 37° C. After incubation the number of revertant colonies on each plate were counted. […] (“n” represents the number of replicates performed for each data point.)
(§6) Maron and Ames (1983) describe the conflicting views with regard to the statisical treatment of data generated from the test.

[4] = test system: Salmonella typhimurium TA102; experiment: Ames assay (dark mutagenicity), strain TA102
Source text: as §2, §3, §4, §5, §6

[5] = test system: Chinese hamster ovary (CHO) cells; experiment: In vitro genotoxicity screen in CHO cells; type: cell-based; details: approximately 3 hours exposure in the dark, dilutions 1-1000 μg/ml
Source text: The positive control was methylmethane sulfonate.
Coverslips were mounted with Permount.

[6] = test system: Salmonella typhimurium TA1538; experiment: Ames assay (dark mutagenicity), strain TA1538
Source text: as §2, §3, §4, §5, §6

[7] = test system: Salmonella typhimurium TA1537; experiment: Ames assay (dark mutagenicity), strain TA1537
Source text: as §2, §3, §4, §5, §6

[8] = test system: Salmonella typhimurium TA98; experiment: Ames assay (dark mutagenicity), strain TA98
Source text: as §2, §3, §4, §5, §6

[9] = test system: Salmonella tester strains TA97a, TA98, TA100, TA102, TA1537 and TA1538; experiment: Ames assay, overall assessment over the tester strains
Source text: as §2, §3, §4
For all experiments, the pre-incubation procedure was used. In this procedure one vial of each tester strain was thawed and 20 μL of this culture was added to 6 mL of Oxoid Nutrient Broth #2. This solution was allowed to shake for 10 hours at 37° C. In the pre-incubation procedure, 0.1 mL of this overnight culture was added to each of the required number of sterile test tubes. To half of the tubes 0.5 mL of a 10% S-9 solution containing Aroclor 1254 induced rat liver extract (Molecular Toxicology Inc., Annapolis, Md.), and MgCl2, KCl, glucose-6-phosphate, NADP, and sodium phosphate buffer (Sigma, St. Louis, Mo.) were added. To the other half of the tubes 0.5 mL of 0.2M sodium phospate buffer, pH 7.4, was used in place of the S-9 mixture (the -S9 samples). Finally 0.1 mL of the test solution containing either 0, 0.1, 0.5, 1, 5, 10, 50, 100, 250, or 500 μg/mL of the test compound was added. […] After incubation the number of revertant colonies on each plate were counted. […]

[10] = test system: Salmonella typhimurium TA100
Source text: as §2, §3, §4, §5, §6

HIV-1 = details: concentrations of 64 μM of compound or higher
Experimental: Pathogen inactivation efficiency of several compounds of the present invention was evaluated by examining the ability of the compounds to inactivate cell-free virus (HIV). Inactivation of cell-free HIV was performed as follows.
As in the R17 assay, small aliquots of the compounds listed in TABLES 10 and 11, below, at the concentrations listed in the table, were added to stock HIV-1 to a total of 0.5 mL. The stock HIV (10^5-10^7 plaque forming units/mL) was in DMEM/15% FBS. […] Controls included HIV-1 stock only, HIV-1 plus UVA only, and HIV-1 plus the highest concentration of each psoralen tested, with no UVA. Post irradiation, all samples were stores frozen at −70° C. until assayed for infectivity by a microtiter plaque assay. Aliquots for measurement of residual HIV infectivity in the samples treated with a compound of the present invention were withdrawn and cultured.
Residual HIV infectivity was assayed using an MT-2 infectivity assay. […] After 24 to 48 hours, the red fluorescence-stained microplaques were visualized by placing the plates on an 8,000 μW/cm^2 304 nm UV light box (Fotodyne, Inc., New Berlin, Wis.). The plaques were counted at a magnification of ×20 to ×25 through a stereomicroscope.

Cc1cc(=O)oc2c(C)c3oc(CNCCCCN)c(C)c3cc12 [Compound 17, 5′-(6-amino-2-aza)hexyl-4,4′,8-trimethylpsoralen]
outcome of dose escalation in the micronucleus assay (mouse reticulocytes): the acutely lethal dose was reached before there were any signs of bone marrow toxicity or micronucleus formation
platelet count compared with samples treated with light alone (human platelets): higher platelet count than samples treated with light alone
GMP-140 expression: sample treated with light and psoralen (PCD) versus day 5 untreated control (D5) [1]: little or no difference

Cc1oc2c(C)c3oc(=O)cc(C)c3cc2c1CN [AMT, 4′-Aminomethyl-4,5′,8-trimethylpsoralen, reference compound]
PCR amplification of the 1072 bp DHBV amplicon [2]: a signal could be detected
PCR amplification of the 1072 bp DHBV amplicon ([2]; 70 and 100 mM levels): inhibited PCR amplification
revertants per plate ([3]; TA97a −S9, 0.1 μg/plate): 14
revertants per plate ([3]; TA97a −S9, 0.5 μg/plate): 9
revertants per plate ([3]; TA97a −S9, 1 μg/plate): 54
revertants per plate ([3]; TA97a −S9, 5 μg/plate): 73
revertants per plate ([4]; TA102 +S9, 0.1 μg/plate): −20
revertants per plate ([4]; TA102 +S9, 0.5 μg/plate): 5
revertants per plate ([4]; TA102 +S9, 1 μg/plate): −17
revertants per plate ([4]; TA102 +S9, 5 μg/plate): 51
genotoxic (toxic) concentration [5]: 30 µg/mL
dose at which frameshift mutagenicity was shown ([6]; TA1538): 1 μg/plate
revertants per plate ([6]; TA1538 −S9, 0.1 μg/plate): 3
revertants per plate ([6]; TA1538 −S9, 0.5 μg/plate): 4
revertants per plate ([6]; TA1538 −S9, 1 μg/plate): 4
revertants per plate ([6]; TA1538 −S9, 5 μg/plate): 13
revertants per plate ([6]; TA1538 −S9, 10 μg/plate): 14
dose at which frameshift mutagenicity was shown ([7]; TA1537): 5 μg/plate
revertants per plate ([7]; TA1537 +S9, 100 μg/plate): 500

Cc1cc(=O)oc2c(C)c3oc(COCCN)c(C)c3cc12 [Compound 18, 5′-(4-amino-2-oxa)butyl-4,4′,8-trimethylpsoralen]
outcome of dose escalation in the micronucleus assay (mouse reticulocytes): the acutely lethal dose was reached before there were any signs of bone marrow toxicity or micronucleus formation
revertants per plate ([8]; TA98 +S9, 10 μg/plate): 8
revertants per plate ([8]; TA98 +S9, 50 μg/plate): 6
revertants per plate ([8]; TA98 +S9, 100 μg/plate): 26
revertants per plate ([8]; TA98 +S9, 200 μg/plate): 42
revertants per plate ([8]; TA98 −S9, 10 μg/plate): 21
revertants per plate ([8]; TA98 −S9, 50 μg/plate): 303
revertants per plate ([8]; TA98 −S9, 100 μg/plate): 390
revertants per plate ([8]; TA98 −S9, 200 μg/plate): 225
platelet count compared with samples treated with light alone (human platelets): higher platelet count than samples treated with light alone
GMP-140 expression: sample treated with light and psoralen (PCD) versus day 5 untreated control (D5) [1]: notable increase above the control
revertants per plate ([7]; TA1537 +S9, 10 μg/plate): 8
revertants per plate ([7]; TA1537 +S9, 50 μg/plate): 6
revertants per plate ([7]; TA1537 +S9, 100 μg/plate): 26
revertants per plate ([7]; TA1537 +S9, 200 μg/plate): 42
revertants per plate ([7]; TA1537 −S9, 10 μg/plate): 21
revertants per plate ([7]; TA1537 −S9, 50 μg/plate): 303
revertants per plate ([7]; TA1537 −S9, 100 μg/plate): 390
revertants per plate ([7]; TA1537 −S9, 200 μg/plate): 225
mutagenic response compared with AMT ([9]; in the absence of S9): higher in the absence of S9, but still was significantly below that of AMT
mutagenic response ([9]; in the presence of S9 in strains TA 9o and TA 1537): only a weak response at high concentrations

Cc1oc2c(C)c3oc(=O)cc(C)c3cc2c1CCN [Compound 3, 4′-(2-aminoethyl)-4,5′,8-trimethylpsoralen]
revertants per plate ([10]; TA100 +S9, 5 μg/plate): −19
revertants per plate ([10]; TA100 +S9, 10 μg/plate): 8
HIV inactivation activity compared with AMT (HIV-1): significantly more active than AMT
revertants per plate ([6]; TA1538 −S9, 5 μg/plate): 0
revertants per plate ([6]; TA1538 −S9, 10 μg/plate): −6
mutagenicity (overall) ([9]; strains tested: TA100 and TA1538, ±S9, 5 and 10 μg/plate): no mutagenicity
